This passage reports IC50 results from patent publication US6818663B2, “Diaminothiazoles” (Hoffmann-La Roches, priority 2002, dated 2004).

One test addresses human cyclin B-CDK1 (Homo sapiens, UniProt P06493). Nature of the test: FlashPlate kinase assay, cyclin B-CDK1, Rb substrate. The test is classed as biochemical. To be noted: recombinant cyclin B-CDK1, Rb phosphorylation, 1 μM ATP. An outline of the steps:
(§1)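 Recombinant human cyclin–CDK complexes, co-expressed in insect cells, phosphorylated His-tagged Rb (aa 386-928) coated on FlashPlates at 10 μg/ml. Reaction used 1 μM ATP plus 4 nM ^33P-ATP and 20 mM MgCl2 for 30 min at room temperature. % inhibition came from scintillation counts against no-enzyme and no-compound wells, and IC50 was the concentration halving radiolabel incorporation.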

The next test has as its target human cyclin E-CDK2 (Homo sapiens, UniProt P24941). The test can be described thus: FlashPlate kinase assay, cyclin E-CDK2, Rb substrate. The test is classed as biochemical. The conditions noted are these: recombinant cyclin E-CDK2, Rb phosphorylation, 1 μM ATP. An outline of the steps: as §1
The next test addresses human cyclin D1-CDK4 (Homo sapiens, UniProt P11802). The test can be described thus: FlashPlate kinase assay, cyclin D1-CDK4, Rb substrate. The test is classed as biochemical. To be noted: recombinant cyclin D1-CDK4, Rb phosphorylation, 1 μM ATP. An outline of the steps:
as §1

For test [1], the system named is HCT116, a colorectal carcinoma cell line. The test can be described thus: Tetrazolium dye proliferation assay (MTT assay). The test is classed as cell-based. The conditions noted are these: Homo sapiens, HCT-116, HCT116 cells, inhibition of cell proliferation. An outline of the steps:
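HCT116 cells in McCoy's 5A + 10% FCS, plated overnight, then dosed in duplicate with serial dilutions (final DMSO 0.3%) and incubated to growth-curve time points. MTT at 1 mg/ml for 2.5-3 h, formazan in ethanol, A570/650. IC50 by linear regression of log concentration vs % inhibition relative to blank and DMSO controls.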
(Tetrazolium assays rely on reduction of a dye to a coloured formazan, in cell work by metabolically active cells.)

A word on the IC50: it is the concentration at which inhibition is half-maximal.

Sequence of human cyclin B-CDK1 (P06493 whole entry, the tested form may be a part): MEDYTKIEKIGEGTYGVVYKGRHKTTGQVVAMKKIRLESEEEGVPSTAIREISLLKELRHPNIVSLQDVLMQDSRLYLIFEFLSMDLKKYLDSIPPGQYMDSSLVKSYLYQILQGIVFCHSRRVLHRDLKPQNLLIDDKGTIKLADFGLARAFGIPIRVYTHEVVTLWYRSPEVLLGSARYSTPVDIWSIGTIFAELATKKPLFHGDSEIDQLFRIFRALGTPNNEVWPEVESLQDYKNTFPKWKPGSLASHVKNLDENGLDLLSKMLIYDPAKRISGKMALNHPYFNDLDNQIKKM
Sequence of human cyclin B-CDK1 (P14635 whole entry partner, the tested form may be a part): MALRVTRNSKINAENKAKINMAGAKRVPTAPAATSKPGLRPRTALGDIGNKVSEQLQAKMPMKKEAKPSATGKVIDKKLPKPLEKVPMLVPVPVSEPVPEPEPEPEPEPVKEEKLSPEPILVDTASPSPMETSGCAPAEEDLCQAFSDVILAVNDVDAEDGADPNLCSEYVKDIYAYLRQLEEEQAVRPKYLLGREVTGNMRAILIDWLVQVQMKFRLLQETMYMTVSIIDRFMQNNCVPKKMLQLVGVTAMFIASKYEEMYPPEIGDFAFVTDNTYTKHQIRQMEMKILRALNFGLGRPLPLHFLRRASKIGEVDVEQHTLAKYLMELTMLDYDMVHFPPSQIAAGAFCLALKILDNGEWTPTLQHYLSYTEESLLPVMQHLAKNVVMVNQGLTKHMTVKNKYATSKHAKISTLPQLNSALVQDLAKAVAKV
Sequence of human cyclin D1-CDK4 (P11802 whole entry): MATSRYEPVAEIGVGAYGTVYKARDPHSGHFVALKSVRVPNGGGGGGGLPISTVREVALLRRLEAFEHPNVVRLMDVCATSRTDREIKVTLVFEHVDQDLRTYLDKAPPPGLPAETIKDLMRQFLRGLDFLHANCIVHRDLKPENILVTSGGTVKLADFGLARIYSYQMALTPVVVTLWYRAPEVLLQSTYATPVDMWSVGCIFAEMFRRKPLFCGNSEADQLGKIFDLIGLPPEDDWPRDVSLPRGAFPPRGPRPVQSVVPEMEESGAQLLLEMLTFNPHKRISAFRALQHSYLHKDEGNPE
Sequence of human cyclin D1-CDK4 (P24385 whole entry partner): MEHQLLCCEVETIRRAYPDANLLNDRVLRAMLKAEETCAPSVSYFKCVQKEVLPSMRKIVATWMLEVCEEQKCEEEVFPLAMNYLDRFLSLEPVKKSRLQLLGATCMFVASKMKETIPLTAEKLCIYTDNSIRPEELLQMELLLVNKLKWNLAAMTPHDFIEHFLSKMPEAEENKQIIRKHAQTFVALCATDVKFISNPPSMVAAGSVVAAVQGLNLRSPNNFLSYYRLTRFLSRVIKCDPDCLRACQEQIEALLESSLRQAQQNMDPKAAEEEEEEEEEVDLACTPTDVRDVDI

On to `CCCc1cc(C(=O)c2sc(Nc3ccc(OC[C@@H](C)N4CCCC4)cc3)nc2N)ccc1O` [Example 110, (R)-[4-Amino-2-[4-(2-pyrrolidin-1-yl-propoxy)-phenylamino]-thiazol-5-yl]-(4-hydroxy-3-propyl-phenyl)-methanone; Compound With Acetic Acid], for which the half-inhibitory concentration (IC50) at human cyclin B-CDK1 stood at 177 nM; on human cyclin E-CDK2 it was 182 nM; at human cyclin D1-CDK4 it was 23 nM; in test [1], 291 nM.
With `CN1CCC[C@H]1COc1ccc(Nc2nc(N)c(C(=O)c3cccc(C4CC4)c3)s2)cc1` [Example 113, (S)-[4-Amino-2-[4-(1-methyl-pyrrolidin-2-ylmethoxy)-phenylamino]-thiazol-5-yl]-(3-cyclopropyl-phenyl)-methanone], the IC50 stood at 3900 nM on human cyclin B-CDK1, 3340 nM at human cyclin E-CDK2, 62 nM at human cyclin D1-CDK4 and 1070 nM in test [1].
The matching figures for `CCc1cccc(C(=O)c2sc(Nc3ccc(OC4CCN(CC)C4)cc3)nc2N)c1` (stereo not shown) [Example 84, [4-Amino-2-[4-(1-ethyl-pyrrolidin-3-yloxy)-phenylamino]-thiazol-5-yl]-(3-ethyl-phenyl)-methanone]: 655 nM, 278 nM, 46 nM and 1510 nM.
On the same counts, the results for `Nc1nc(Nc2ccc(OCCN3CCCC3)cc2)sc1C(=O)c1cccc(C(F)(F)F)c1` [Example 128, [4-Amino-2-[4-(2-pyrrolidin-1-yl-ethoxy)-phenylamino]-thiazol-5-yl]-(3-trifluoromethyl-phenyl)-methanone] are 2050 nM, 1310 nM, 65 nM and 4590 nM.
On to `CCc1cccc(C(=O)c2sc(Nc3ccc(OC[C@@H]4CCCN4C)cc3)nc2N)c1` [Example 112, (S)-[4-Amino-2-[4-(1-methyl-pyrrolidin-2-ylmethoxy)-phenylamino]-thiazol-5-yl]-(3-ethyl-phenyl)-methanone], for which the half-maximal inhibitory concentration (IC50) at human cyclin B-CDK1 came out at 1890 nM; at human cyclin E-CDK2 it was 2320 nM; at human cyclin D1-CDK4, 42 nM; in test [1], 419 nM.
Consider `CCc1cccc(C(=O)c2sc(Nc3ccc(OC4CCCN(CC)C4)cc3)nc2N)c1` (stereo not shown) [Example 79, [4-Amino-2-[4-(1-ethyl-piperidin-3-yloxy)-phenylamino]-thiazol-5-yl]-(3-ethyl-phenyl)-methanone], for which the half-maximal inhibitory concentration (IC50) at human cyclin B-CDK1 is 1080 nM; on human cyclin E-CDK2 it was 1170 nM; at human cyclin D1-CDK4, 23 nM; in test [1] it was 1470 nM.
With `C[C@H](COc1ccc(Nc2nc(N)c(C(=O)c3cccc(C4CC4)c3)s2)cc1)N1CCCC1` [Example 68, (R)-[4-Amino-2-[4-(2-pyrrolidin-1-yl-propoxy)-phenylamino]-thiazol-5-yl]-(3-cyclopropyl-phenyl)-methanone], the half-maximal inhibitory concentration (IC50) on human cyclin B-CDK1 was determined as 2070 nM; at human cyclin E-CDK2 it was 4540 nM; on human cyclin D1-CDK4, 51 nM; in test [1] it was 1210 nM.
The matching figures for `CN1CCC[C@H]1COc1ccc(Nc2nc(N)c(C(=O)c3cccc(F)c3)s2)cc1` [Example 44, (S)-[4-Amino-2-[4-(1-methyl-pyrrolidin-2-ylmethoxy)-phenylamino]-thiazol-5-yl]-(3-fluoro-phenyl)-methanone]: 594 nM, 1270 nM, 65 nM and 390 nM.
In the case of `CCc1cccc(C(=O)c2sc(Nc3ccc(OCCN(C)C)cc3)nc2N)c1` [Example 52, [4-Amino-2-[4-(2-dimethylamino-ethoxy)-phenylamino]-thiazol-5-yl]-(3-ethyl-phenyl)-methanone], the half-maximal inhibitory concentration (IC50) was found to be 3230 nM on human cyclin B-CDK1, 1210 nM at human cyclin E-CDK2, 27 nM at human cyclin D1-CDK4 and 526 nM in test [1].
Regarding `CCNCCOc1ccc(Nc2nc(N)c(C(=O)c3ccc(C)c(F)c3)s2)cc1` [Example 103, [4-Amino-2-[4-(2-ethylamino-ethoxy)-phenylamino]-thiazol-5-yl]-(3-fluoro-4-methyl-phenyl)-methanone; Compound With Acetic Acid], the IC50 was found to be 432 nM on human cyclin B-CDK1, 1760 nM on human cyclin E-CDK2, 41 nM on human cyclin D1-CDK4 and 1430 nM in test [1].
Consider `CC(COc1ccc(Nc2nc(N)c(C(=O)c3cccc(F)c3)s2)cc1)N(C)C` (stereo not shown) [Example 38, [4-Amino-2-[4-(2-dimethylamino-propoxy)-phenylamino]-thiazol-5-yl]-(3-fluoro-phenyl)-methanone], for which the half-maximal inhibitory concentration (IC50) at human cyclin B-CDK1 is 576 nM; on human cyclin E-CDK2, 1380 nM; at human cyclin D1-CDK4, 97 nM; in test [1] it was 436 nM.
In the case of `CCN1CCC(Oc2ccc(Nc3nc(N)c(C(=O)c4cccc(C)c4)s3)cc2)C1` (stereo not shown) [Example 83, [4-Amino-2-[4-(1-ethyl-pyrrolidin-3-yloxy)-phenylamino]-thiazol-5-yl]-m-tolyl-methanone], the half-maximal inhibitory concentration (IC50) on human cyclin B-CDK1 stood at 980 nM; on human cyclin E-CDK2, 499 nM; on human cyclin D1-CDK4, 49 nM; in test [1] it was 1560 nM.
On the same counts, the results for `CCCc1cc(C(=O)c2sc(Nc3ccc(OCC(C)(C)N(C)C)cc3)nc2N)ccc1O` [Example 108, [4-Amino-2-[4-(2-dimethylamino-2-methyl-propoxy)-phenylamino]-thiazol-5-yl]-(4-hydroxy-3-propyl-phenyl)-methanone; Compound With Acetic Acid] are 291 nM, 295 nM, 26 nM and 518 nM.
On the same counts, the results for `CCN(CC)CCOc1ccc(Nc2nc(N)c(C(=O)c3ccc(OC)c(F)c3)s2)cc1` [Example 125, [4-Amino-2-[4-(2-diethylamino-ethoxy)-phenylamino]-thiazol-5-yl]-(3-fluoro-4-methoxy-phenyl)-methanone] are 2180 nM, 6790 nM, 32 nM and 2220 nM.
On the same counts, the results for `CCN1CCCC(Oc2ccc(Nc3nc(N)c(C(=O)c4cccc(C5CC5)c4)s3)cc2)C1` (stereo not shown) [Example 80, [4-Amino-2-[4-(1-ethyl-piperidin-3-yloxy)-phenylamino]-thiazol-5-yl]-(3-cyclopropyl-phenyl)-methanone] are 1840 nM, 2280 nM, 19 nM and 1720 nM.
Take `CC(C)NCCOc1ccc(Nc2nc(N)c(C(=O)c3ccc4c(c3)OCO4)s2)cc1` [Example 137, [4-Amino-2-[4-(2-isopropylamino-ethoxy)-phenylamino]-thiazol-5-yl]-benzo[1,3]dioxol-5-yl-methanone]: the half-inhibitory concentration (IC50) at human cyclin B-CDK1 worked out at 457 nM; on human cyclin E-CDK2 it was 2750 nM; on human cyclin D1-CDK4, 19 nM; in test [1], 1730 nM.
The matching figures for `CCc1cccc(C(=O)c2sc(Nc3ccc(OC4CCNC4)cc3)nc2N)c1` (stereo not shown) [Example 92, [4-Amino-2-[4-(pyrrolidin-3-yloxy)-phenylamino]-thiazol-5-yl)-(3-ethyl-phenyl)-methanone; Compound With Acetic Acid]: 538 nM, 495 nM, 51 nM and 1570 nM.
On the same counts, the results for `CCCc1cc(C(=O)c2sc(Nc3ccc(OCCN4CCCC4)cc3)nc2N)ccc1O` [Example 109, [4-Amino-2-[4-(2-pyrrolidin-1-yl-ethoxy)-phenylamino]-thiazol-5-yl]-(4-hydroxy-3-propyl-phenyl)-methanone; Compound With Acetic Acid] are 151 nM, 207 nM, 14 nM and 229 nM.
The matching figures for `CCNCCOc1ccc(Nc2nc(N)c(C(=O)c3cccc(C4CC4)c3)s2)cc1` [Example 102, [4-Amino-2-[4-(2-ethylamino-ethoxy)-phenylamino]-thiazol-5-yl]-(3-cyclopropyl-phenyl)-methanone; Compound With Acetic Acid]: 883 nM, 1690 nM, 26 nM and 738 nM.
In the case of `Cc1cccc(C(=O)c2sc(Nc3ccc(OCCN(C)C)cc3)nc2N)c1` [Example 50, [4-Amino-2-[4-(2-dimethylamino-ethoxy)-phenylamino]-thiazol-5-yl]-m-tolyl-methanone], the IC50 turned out to be 1700 nM on human cyclin B-CDK1, 3360 nM on human cyclin E-CDK2, 60 nM on human cyclin D1-CDK4 and 1040 nM in test [1].
In the case of `CCNCCOc1ccc(Nc2nc(N)c(C(=O)c3ccc(F)c(CC)c3)s2)cc1` [Example 104, [4-Amino-2-[4-(2-ethylamino-ethoxy)-phenylamino]-thiazol-5-yl]-(3-ethyl-4-fluoro-phenyl)-methanone; Compound With Acetic Acid], the 50% inhibitory concentration (IC50) on human cyclin B-CDK1 came to 3510 nM; at human cyclin E-CDK2, 3310 nM; on human cyclin D1-CDK4, 52 nM; in test [1] it was 2450 nM.
Take `CCCc1cc(C(=O)c2sc(Nc3ccc(OC4CCN(CC)C4)cc3)nc2N)ccc1O` (stereo not shown) [Example 89, [4-Amino-2-[4-(1-ethyl-pyrrolidin-3-yloxy)-phenylamino]-thiazol-5-yl]-(4-hydroxy-3-propyl-phenyl)-methanone; Compound With Acetic Acid]: the 50% inhibitory concentration (IC50) turned out to be 261 nM on human cyclin B-CDK1, 175 nM at human cyclin E-CDK2, 19 nM at human cyclin D1-CDK4 and 327 nM in test [1].
